Measured values from patent publication US10836792B2, “Retro-inverso peptide inhibitors of cell migration, extracellular matrix and endothelial invasion by tumor cells” (ISTITUTO NAZIONALE TUMORI IRCCS “FONDAZIONE G. PASCALE”, priority 2016, dated 2020).

How the values were obtained:
HT1080 cells [1] = assay: FBS-directed migration of HT1080 cells in Boyden chambers; assay type: cell-based, human; details: 10 nM peptide, 10% FBS, 4 hrs
Protocol: FIG. 4 Retro-inverso peptides inhibit FBS-directed migration of HT1080 cells in a dose dependent manner (Example 4).
To assess whether retro-inverso peptides exert some effect on directional cell migration, HT1080 cells were allowed to migrate for 4 hrs in Boyden chambers toward serum-free medium (CTRL), 10% FBS (None) or 10% FBS mixed with peptides, each tested at 10 nM concentration. For quantitative analysis, the basal values assessed in the absence of FBS (CTRL) was taken as 100% and all values were reported relative to that. Data are the means±SD of two independent experiments, performed in triplicate. Statistical significance calculated against None with *p<0.01, **p<0.001 (A). All retro-inverso peptides caused a reduction of FBS-directed cell migration although to different extent. Peptides RI-1, RI-2, RI-3, RI-4 and RI-5 reduced by 49%, 46%, 65%, 9% and 6%, respectively, the extent of FBS-directed cell migration. Similar results were obtained when, HT1080 cell migration was monitored in real time for 18 hrs at 37° C., 5% CO2 by the xCELLigence system. Data represent mean±SD from a quadruplicate experiment representative of 2 replicates (B). Then, HT1080 cells were allowed to migrate in Boyden chambers toward 10% FBS plus increasing concentrations of RI-3, and data were expressed as a percentage of cells migrated toward FBS alone (100%) Inhibitory effect of RI-3 is dose-dependent, it starts in the high fM range, it seems to level off in the nM range and reaches an overall 50% reduction at 1×10^−13M (C).

HT1080 cells [2] = assay: FBS-directed matrigel invasion of HT1080 cells (xCELLigence RTCA); assay type: cell-based, human; details: 10 nM peptide, growth medium, 20 hrs
Source text: FIG. 5 Peptides RI-1, RI-2, RI-3, RI-4 and RI-5 reduced by 33%, 35%, 81%, 52% and 11%, respectively, the extent of FBS-directed matrigel invasion of HT1080 cells (A), as assessed in real time using the xCELLigence RTCA technology. The inhibitory effect of RI-3 is dose-dependent (B) (Example 5).
Cell migration is a prerequisite for cancer invasion. Therefore, we investigated whether retro-inverso peptides prevent matrigel invasion of HT1080 cells using the xCELLigence RTCA technology. Cells were seeded on polymerized matrigel and lower chambers were filled with DMEM (CTRL), growth medium (None) or growth medium with 10 nM the indicated peptides (A), or with increasing concentrations of RI-3 (B). Matrigel invasion was monitored in real time for 20 (A) or 18 (B) hrs at 37° C., 5% CO2 and the impedance values were automatically monitored as changes in cell index. Data represent means±SD from quadruplicate experiments, each representative of 2 replicates. HT1080 cells were able to cross matrigel in the presence of 10% FBS. All retro-inverso peptides caused a reduction of FBS-directed cell migration although to different extent.

[3] = tested on: human fibrosarcoma HT1080 cells; assay: Migration of HT1080 cells toward the peptides as chemoattractant (xCELLigence RTCA); assay type: cell-based; details: 10 nM peptide as chemoattractant, 18 hrs, cell index
Source text: Cell index due to the adhesion of migrating cells to microelectrodes are reported in (A); analysis of slopes representing the change rate of cell index generated in the time range 0-12 hr are reported in (B).
We assessed whether new generated retro-inverso peptides elicit themselves cell migration of human fibrosarcoma HT1080 cells. […] The results are depicted in FIG. 2. Data represent mean±SD from a quadruplicate experiment representative of 2 replicates (A).

sarcoma cell = details: mouse model of lung colonization; cited from earlier work

Substance	reduction of the extent of FBS-directed cell migration (HT1080 cells [1]) [%]	reduction of the extent of FBS-directed cell invasion (matrigel) (HT1080 cells [2]) [%]	cell migration triggered by the peptide [3]	inhibition of sarcoma cell invasion (sarcoma cell)
Ac-(D)-Tyr-(D)-Arg-(D)-Glu-(D)-Arg-NH2 [RI-1]	49	33	–	–
Phenylacetyl-D-Arg-Aib-D-Arg-NH2 [RI-4]	9	52	–	–
3-phenylpropionyl-D-Arg-Aib-D-Arg-NH2 [RI-5]	6	11	–	–
N-formyl-methionyl-leucyl-phenylalanine peptide [fMLF]	–	–	elicited a considerable cell migration	–
Ac-(D)-Tyr-(D)-Arg-(D)-Ser-(D)-Arg-NH2 [RI-2]	46	35	–	–
Ac-L-Arg-Aib-L-Arg-D-Cα(Me)Phe-NH2 [UPARANT]	–	–	–	does not inhibit sarcoma cell invasion
